The numbers were not newly measured in US20200261400A1, “METHOD FOR LONG-TERM TREATMENT OF ROSACEA” (Sol-Gel Technologies Ltd., priority 2019, published 2020), which cites them from elsewhere.

The data set relates to rosacea lesions. The settings on record: BPO as the sole active agent.

For `O=C(OOC(=O)c1ccccc1)c1ccccc1` [BPO, Benzoyl peroxide], the response of lesions entry is on record as “unresponsive”.
